Experimental data taken from patent publication US20170368037A1, “PHARMACEUTICAL COMPOSITION FOR PROMOTION OF FIBRINOLYSIS” (Daiichi Sankyo Company, Limited, priority 2014, published 2017).

Legend:
[1] = tested on: fibrinolysis induced by tPA in human plasma; assay: Fibrinolysis assay (clot lysis time in human plasma containing tPA and TM), Example 2; type: biochemical; settings: tPA 180 ng/mL, TM 0.1 nM, vs control
Experimental: Edoxaban was dissolved in DMSO to prepare a 10 mM solution, which was then stored at −30° C. Before use, the frozen product was thawed and diluted with DMSO and saline (DMSO concentration in test substance solution: 1.92%).
PCI (Sigma-Aldrich, Co. LLC.) was dissolved in Hepes buffer to prepare a 4.8 mg/mL solution, which was then stored at −30° C. Before use, the frozen product was thawed and diluted with Hepes buffer.
Hepes buffer, tPA solution, and PPP reagent were prepared in the same way as in Example 1(2). […]
(§1) 70 μL of the human plasma sample (containing tPA and TM), 5 μL each of varying concentrations of the edoxaban solution, 5 μL of PCI, and 20 μL of the PPP reagent were added to each well of a 96-well plate (Sumilon Proteosave SS 96F plate, MS-8296F). […] Absorbance at 405 nm was measured every 30 seconds using SpectraMAX 384 Plus prewarmed to 37° C. The time for the absorbance to decrease to ½ of the peak from the time to reach ½ of the peak was calculated using SoftMax Pro 5.4.1 and used as clot lysis time. […]
Two experiments were conducted on each of 3 lots of human plasma (n=6). The basic statistics (mean, standard deviation, and standard error) of the clot lysis time were calculated, and the results were indicated by mean±standard error (SEM). […] Concentration dependence was evaluated by Spearman's rank correlation coefficient hypothesis test. […]

[2] = tested on: fibrinolysis induced by tPA in human plasma; assay: Fibrinolysis assay (clot lysis time induced by tPA in human plasma), Example 1; type: biochemical; settings: tPA 180 ng/mL, edoxaban 18.8 ng/mL to 300 ng/mL, vs control
Experimental: Edoxaban was dissolved in dimethyl sulfoxide (hereinafter, also referred to as “DMSO”) (Wako Pure Chemical Industries, Ltd.) to prepare a 10 mM solution, which was then stored at −30° C. Before use, the frozen product was thawed and diluted with DMSO and saline (Otsuka Pharmaceutical Factory, Inc.) (DMSO concentration in test substance solution: 0.96%, final DMSO concentration in reaction system: 0.08%).
Hepes buffer: Hepes (Sigma-Aldrich, Co. LLC.) and NaCl (Nacalai Tesque Inc.) were dissolved at 20 mM and 140 mM, respectively, in distilled water, and the solution was adjusted to pH 7.4 using a 1 mol/L sodium hydroxide solution (Nacalai Tesque Inc.). […]
as §1, with “tPA), 10” for “tPA and TM), 5”, “solution,” for “solution, 5 μL of PCI,”, “Plus (Molecular Devices, LLC.)” for “Plus”, “return” for “decrease”, “5.4.1 (Molecular Devices, LLC.)” for “5.4.1”
Two experiments were conducted on each of 3 lots of human plasma (n=6). […] The calculated P value was rounded off and indicated by three decimal places. […]

Row | Molecule | clot lysis time ([1]; edoxaban alone 150 and 300 ng/mL) | clot lysis time [2] | clot lysis time ([1]; PCI alone 0.3 to 3 μg/mL)
1 | CN1CCc2nc(C(=O)N[C@@H]3C[C@@H](C(=O)N(C)C)CC[C@@H]3NC(=O)C(=O)Nc3ccc(Cl)cn3)sc2C1 [Edoxaban, N-(5-chloropyridin-2-yl)-N′-[(1S,2R,4S)-4-(dimethylcarbamoyl)-2-(5-methyl-4,5,6,7-tetrahydro[1,3]thiazolo[5,4-c]pyridine-2-carboxamido)cyclohexyl]oxamide] | significantly shortened the clot lysis time in a concentration-dependent manner | significantly shortened the clot lysis time in a concentration-dependent manner | 
2 | PCI: carboxypeptidase inhibitor from potato tuber, a TAFIa inhibitor (Sigma-Aldrich) (QQHADPICNKPCKTHDDCSGAWFCQACWNSARTCGPYVG; UniProt P01075 1-39, looked up) |  |  | significantly shortened the clot lysis time in a concentration-dependent manner
